This is an account of results in US10226509B2, “Lymphangiogenesis inhibitors for cancer and for graft survival” (TUFTS UNIVERSITY, priority 2014, dated 2019).

Experiment [1] concerns Gal-8-induced LEC sprouting. Kind of experiment: LEC sprouting assay: Gal-8-induced sprouting with inhibitors or knockdown. Conditions: Gal-8 0.75 μM, 24 h; TDG 20 mM; LY294002 20 μM; U0126 20 μM; PD0325901 1 μM; Avastin 10 μg/ml; Obtustatin 4 μM; antibodies 20 μg/ml; siRNA-transfected LECs. The class given is cell-based, human. The protocol: LEC spheroids were generated by seeding primary LECs at passage 4 or 5 in each well of 384-well hanging-drop plates (3D Biomatrix) in complete EGM-2 MV medium containing 0.25% methyl cellulose according to the manufacturer's instructions (750 cells/well). After 18 hours, LEC spheroids were collected, resuspended in serum-free EBM-2 basal medium, and mixed with collagen solution (PureCol collagen, Advanced BioMatrix, 2.2 mg/ml in M199 medium, pH adjusted to 7.4 with NaHCO3 and NaOH). Aliquots of the LEC spheroid/collagen mixture (250 μl/well of 48-well plate) were incubated in the presence or absence of various test agents for 24 hr. At the end of the incubation period, spheroids were stained with Calcein AM (Invitrogen, 1 μg/mL, 37° C., and 30 min). Fluorescent images were acquired using the EVOS FL cell imaging system, pixels were inverted for better visualization and cumulative length of each sprout was calculated. Results were expressed as fold change compared to corresponding controls. […] Test agents used included thiodigalactoside (10 to 50 mM, Carbosynth), 3′-sialyl lactose (2 to 10 mM, Carbosynth), 6′-sialyl lactose (2 to 10 mM, Carbosynth), LY294002 (20 μM, Abeam), U0126 (20 μM, Abeam), PD0325901 (1 μM, Selleckchem), human VEGFR-3-Fc chimera (10 μg/ml, R&D), human VEGFR-2-Fc chimera (10 μg/ml, R&D), Avastin (10 μg/ml, bevacizumab, Genentech/Roche), human control IgG (10 μg/ml, Southern Biotech), anti-human podoplanin functional grade antibody (10 μg/ml, eBioscience), and rat IgG2a κ isotype control functional grade antibody (10 μg/ml, eBioscience).
To determine the role of these pathways on Gal-8-induced lymphangiogenesis, LEC spheroids were stimulated with Gal-8 (0.75 μM) in the presence or absence of PI3K inhibitor (LY294002, 20 μM) and two different MEK inhibitors (U0126, 20 μM; PD0325901, 1 μM). After overnight treatment with Gal-8, accumulated sprout lengths were quantified.

For experiment [2], the system named is VEGF-C-induced LEC sprouting. Kind of experiment: LEC sprouting assay: VEGF-C-induced sprouting. The class given is cell-based, human. The protocol: LEC spheroids were generated by seeding primary LECs at passage 4 or 5 in each well of 384-well hanging-drop plates (3D Biomatrix) in complete EGM-2 MV medium containing 0.25% methyl cellulose according to the manufacturer's instructions (750 cells/well). After 18 hours, LEC spheroids were collected, resuspended in serum-free EBM-2 basal medium, and mixed with collagen solution (PureCol collagen, Advanced BioMatrix, 2.2 mg/ml in M199 medium, pH adjusted to 7.4 with NaHCO3 and NaOH). Aliquots of the LEC spheroid/collagen mixture (250 μl/well of 48-well plate) were incubated in the presence or absence of various test agents for 24 hr. At the end of the incubation period, spheroids were stained with Calcein AM (Invitrogen, 1 μg/mL, 37° C., and 30 min). Fluorescent images were acquired using the EVOS FL cell imaging system, pixels were inverted for better visualization and cumulative length of each sprout was calculated. Results were expressed as fold change compared to corresponding controls. It was observed that sprout lengths vary from passages to passages. Test agents used included thiodigalactoside (10 to 50 mM, Carbosynth), 3′-sialyl lactose (2 to 10 mM, Carbosynth), 6′-sialyl lactose (2 to 10 mM, Carbosynth), LY294002 (20 μM, Abeam), U0126 (20 μM, Abeam), PD0325901 (1 μM, Selleckchem), human VEGFR-3-Fc chimera (10 μg/ml, R&D), human VEGFR-2-Fc chimera (10 μg/ml, R&D), Avastin (10 μg/ml, bevacizumab, Genentech/Roche), human control IgG (10 μg/ml, Southern Biotech), anti-human podoplanin functional grade antibody (10 μg/ml, eBioscience), and rat IgG2a κ isotype control functional grade antibody (10 μg/ml, eBioscience).
In this assay, the LEC spheroids were treated with VEGF-C (50 ng/ml) in the presence or absence of 0.75 μM of Gal-8 for 24 hours, and then accumulated sprout lengths were quantified. […] Synergistic effect of Gal-8 on VEGF-C-induced LEC sprouting was dose-dependent. […] At concentrations >0.5 μM Gal-8, there was no further increase in the degree of VEGF-C-induced lymphangiogenesis (FIG. 4C).
To further characterize the role of carbohydrate-mediated recognition in VEGF-C-induced lymphangiogenesis, LEC spheroids were stimulated with VEGF-C (50 ng/ml) in the presence or absence of three different galectin inhibitors. […] Therefore, the data establishes the critical role of Gal-8-mediated carbohydrate-mediated recognition in VEGF-C-induced lymphangiogenesis.

A further experiment relates to mouse corneas. Kind of experiment: Mouse model of suture-induced inflammatory corneal lymphangiogenesis. The format is in vivo. Conditions: subconjunctival injections days 0, 2, 4, 6; TDG 200 mM; Gal-8N 15 μg; Prox1-EGFP mice. An excerpt: The mouse model of suture-induced lymphangiogenesis was used as described in Cho, Y. K., et al. 2012. Invest Ophthalmol Vis Sci 53:685-692 and Cursiefen, C., et al. 2004. Invest Ophthalmol Vis Sci 45:1117-1124. Two 11-0 sutures were placed intrastromally about 2 mm from the limbus at the 12 and 6 o'clock positions in the Prox1-EGFP reporter mice. After surgery, a veterinary ophthalmic ointment was applied to prevent infection. Sutures were left in place for 7 days. To assess the effect of galectin inhibitors on suture-induced lymphangiogenesis, 10 μL of vehicle (PBS), TDG (200 mM in PBS), or Gal-8N (15 μg in PBS) were subconjunctivally injected on post-surgery days 0, 2, 4 and 6 using a 32 gauge needle with a 10 μL syringe (Hamilton). On day 7 post-surgery, mouse corneas were harvested and processed for staining with anti-LYVE-1 as described in examples herein. The areas of lymphatic vessels covering the whole corneas were calculated.
There is much interest in finding ways to inhibit prolymphangiogenic factors as means of suppressing cancer metastasis, transplant rejection and chronic inflammation. To determine whether galectins can be targeted to control lymphangiogenesis, a well-established in vivo model of lymphangiogenesis was used. […] At the end of the treatment period, lymphatic vessel areas were quantified.

On to `OC[C@H]1O[C@@H](S[C@@H]2O[C@H](CO)[C@H](O)[C@H](O)[C@H]2O)[C@H](O)[C@@H](O)[C@H]1O` [TDG, thiodigalactoside, reference compound], for which, in experiment [1], the “effect on Gal-8-induced LEC sprouting (in words)” value is on record as “almost completely inhibited”. For the same compound, in experiment [2] (VEGF-C 50 ng/ml, 24 h), the “effect on VEGF-C-induced LEC sprouting (in words)” value is listed as “inhibited”. In addition, in experiment [2] (VEGF-C plus Gal-8), the “effect on the synergistic effect of Gal-8 on VEGF-C-induced sprouting” value is reported as “almost completely inhibited”. Further, in the experiment with mouse corneas, the “effect on suture-induced corneal lymphangiogenesis” value is listed as “significantly suppressed”.
